# Test results as given in patent publication US20240246964A1 (Arbutus Biopharma Corporation, priority 2021, published 2024).
# How the values were obtained:
# [1] = molecular target: PD-L1 His protein / PD-1 Fc protein (Homo sapiens (Human), UniProt Q9NZQ7); test: HTRF Assay (PD-1/PD-L1 interaction); assay type: binding; conditions: PD-L1 His 6 nM, PD-1 Fc 6 nM
# human PD-L1 = human PD-L1 (Homo sapiens (Human), UniProt Q9NZQ7); test: T cell activation luciferase reporter cell culture system (T Cell Activation Assay); assay type: cell-based; conditions: luciferase reporter assay; PD-L1 aAPC/CHO-K1 cells with PD-1 effector Jurkat T cells
# human PD-L1, sequence (Q9NZQ7 19-290): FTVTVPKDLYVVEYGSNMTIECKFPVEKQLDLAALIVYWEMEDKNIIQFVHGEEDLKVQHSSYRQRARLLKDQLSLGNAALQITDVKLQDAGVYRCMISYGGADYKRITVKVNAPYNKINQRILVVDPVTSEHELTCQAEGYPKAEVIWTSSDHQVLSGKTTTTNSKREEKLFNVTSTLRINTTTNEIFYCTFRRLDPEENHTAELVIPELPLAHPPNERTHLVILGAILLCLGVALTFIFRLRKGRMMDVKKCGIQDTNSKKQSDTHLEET
# PD-L1 His protein / PD-1 Fc protein, sequence (Q9NZQ7 19-238): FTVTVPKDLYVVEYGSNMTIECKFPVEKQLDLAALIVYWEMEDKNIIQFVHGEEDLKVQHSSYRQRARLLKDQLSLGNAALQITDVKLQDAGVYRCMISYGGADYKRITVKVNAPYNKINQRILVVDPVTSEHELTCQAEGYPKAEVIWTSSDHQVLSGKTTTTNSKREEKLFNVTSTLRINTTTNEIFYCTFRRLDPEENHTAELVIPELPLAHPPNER
Compound,IC50 [1],EC50 (human PD-L1)
"COc1cc(-c2nccc(-c3cccc(-c4ccc(CN5CC6(CCC(=O)N6)C5)c(OC)n4)c3Cl)c2Cl)cnc1CN1CC2(CCC(=O)N2)C1 [Compound 430, 2-((3-Chloro-4-(2-chloro-3-(6-methoxy-5-((6-oxo-2,5-diazaspiro[3.4]octan-2-yl)methyl)pyridin-2-yl)phenyl)-5′-methoxy-[2,3′-bipyridin]-6′-yl)methyl)-2,5-diazaspiro[3.4]octan-6-one]",0.35 nM,23.3 nM
"COCC(=O)N1CCC(NCc2ccc(-c3nccc(-c4cccc(-c5ccc(CNC6CCN(C(=O)COC)CC6)c(OC)n5)c4Cl)c3Cl)cc2OC)CC1 [Example 397, 1-(4-(((6-(2-Chloro-3-(3-chloro-2-(3-methoxy-4-(((1-(2-methoxyacetyl)piperidin-4-yl)amino)methyl)phenyl)pyridin-4-yl)phenyl)-2-methoxypyridin-3-yl)methyl)amino)piperidin-1-yl)-2-methoxyethan-1-one]",0.128 nM,5.71 nM
"COc1cc(-c2nccc(-c3cccc(-c4cc5c(c(OC)c4)CN(C[C@@H]4CCC(=O)N4)CC5)c3Cl)c2Cl)ccc1CNC[C@@H]1CCC(=O)N1 [Compound 18, (S)-5-((6-(2-chloro-3-(3-chloro-2-(3-methoxy-4-(((((S)-5-oxopyrrolidin-2-yl)methyl)amino)methyl)phenyl)pyridin-4-yl)phenyl)-8-methoxy-3,4-dihydroisoquinolin-2(1H)-yl)methyl)pyrrolidin-2-one]",39.8 nM,75.6 nM
"COc1nc(-c2cccc(-c3ccnc(-c4ccc5c(CN(C)C)cn(C)c5c4)c3Cl)c2Cl)ccc1CNC[C@@H]1CCC(=O)N1 [Compound 33, (S)-5-((((6-(2-chloro-3-(3-chloro-2-(3-((dimethylamino)methyl)-1-methyl-1H-indol-6-yl)pyridin-4-yl)phenyl)-2-methoxypyridin-3-yl)methyl)amino)methyl)pyrrolidin-2-one]",0.4 nM,224 nM
"COc1nc(-c2cccc(-c3ccnc(-c4ccc5c(CNC[C@@H]6CCO6)cn(C)c5c4)c3Cl)c2Cl)ccc1CNC[C@@H]1CCC(=O)N1 [Compound 34, (S)-5-((((6-(2-chloro-3-(3-chloro-2-(1-methyl-3-(((((S)-oxetan-2-yl)methyl)amino)methyl)-1H-indol-6-yl)pyridin-4-yl)phenyl)-2-methoxypyridin-3-yl)methyl)amino)methyl)pyrrolidin-2-one]",72.1 nM,122 nM
"COc1nc(-c2cccc(-c3ccnc(-c4cc5c(=O)n(C)c(CNC[C@@H]6CCC(=O)N6)nn5c4)c3Cl)c2Cl)ccc1CNC[C@@H]1CCC(=O)N1 [Compound 103, 6-(3-chloro-4-(2-chloro-3-(6-methoxy-5-(((((S)-5-oxopyrrolidin-2-yl)methyl)amino)methyl)pyridin-2-yl)phenyl)pyridin-2-yl)-3-methyl-2-(((((S)-5-oxopyrrolidin-2-yl)methyl)amino)methyl)pyrrolo[2,1-f][1,2,4]triazin-4(3H)-one]",0.7 nM,304 nM
"COc1cc(-c2nccc(-c3cccc(-c4ccc(CN5CC6(CNC(=O)C6)C5)c(OC)n4)c3Cl)c2Cl)cc2c1CN(CC(O)CF)CC2 (stereo not drawn) [Example 296, 2-((6-(2-Chloro-3-(3-chloro-2-(2-(3-fluoro-2-hydroxypropyl)-8-methoxy-1,2,3,4-tetrahydroisoquinolin-6-yl)pyridin-4-yl)phenyl)-2-methoxypyridin-3-yl)methyl)-2,6-diazaspiro[3.4]octan-7-one]",3.3 nM,49.8 nM
"COC(=O)C1(CN2CCc3cc(-c4nccc(-c5cccc(-c6ccc(CN7CC8(CNC(=O)C8)C7)c(OC)n6)c5Cl)c4Cl)cc(OC)c3C2)CC1 [Example 295, Methyl 1-((6-(3-chloro-4-(2-chloro-3-(6-methoxy-5-((7-oxo-2,6-diazaspiro [3.4]octan-2-yl)methyl)pyridin-2-yl)phenyl)pyridin-2-yl)-8-methoxy-3,4-dihydroisoquinolin-2(1H)-yl)methyl)cyclopropane-1-carboxylate]",2.1 nM,233 nM
"COc1cc(-c2nccc(-c3cccc(-c4ccc(CN5CC6(CCC(=O)N6)C5)c(OC)n4)c3Cl)c2Cl)ccc1CN1CC2(CCC(=O)N2)C1 [Example 398, 2-((6-(2-Chloro-3-(3-chloro-2-(3-methoxy-4-((6-oxo-2,5-diazaspiro[3.4]octan-2-yl)methyl)phenyl)pyridin-4-yl)phenyl)-2-methoxypyridin-3-yl)methyl)-2,5-diazaspiro[3.4]octan-6-one]",0.278 nM,8.54 nM
"CNCc1ccc(-c2nccc(-c3cccc(-c4ccc(CNC)c(OC)n4)c3Cl)c2Cl)cc1F [Example 283, 1-(6-(2-Chloro-3-(3-chloro-2-(3-fluoro-4-((methylamino)methyl)phenyl)pyridin-4-yl)phenyl)-2-methoxypyridin-3-yl)-N-methylmethanamine]",3.94 nM,36.7 nM
"COc1cc(-c2nccc(-c3cccc(-c4ccc(CNC5CCOCC5)c(OC)n4)c3Cl)c2Cl)ccc1CN(C)C1CCOCC1 [Example 441, N-(4-(3-chloro-4-(2-chloro-3-(6-methoxy-5-(((tetrahydro-2H-pyran-4-yl)amino)methyl)pyridin-2-yl)phenyl)pyridin-2-yl)-2-methoxybenzyl)-N-methyltetrahydro-2H-pyran-4-amine]",5.61 nM,149 nM
"COc1nc(-c2cccc(-c3ccnc(-c4cc(OC)c5nc(CNCC(F)F)cn5c4)c3Cl)c2Cl)ccc1CNC1CCN(C(C)=O)CC1 [Example 478, 1-(4-(((6-(2-Chloro-3-(3-chloro-2-(2-(((2,2-difluoroethyl)amino)methyl)-8-methoxyimidazo[1,2-a]pyridin-6-yl)pyridin-4-yl)phenyl)-2-methoxypyridin-3-yl)methyl)amino)piperidin-1-yl)ethan-1-one]",43.9 nM,≥ 10000 nM
"COc1cc(-c2nccc(-c3cccc(-c4ccc(CN5CC(C(C)(C)O)C5)c(OC)n4)c3Cl)c2Cl)ccc1CN1CC(C(C)(C)O)C1 [Example 471, 2-(1-((6-(2-Chloro-3-(3-chloro-2-(4-((3-(2-hydroxypropan-2-yl)azetidin-1-yl)methyl)-3-methoxyphenyl)pyridin-4-yl)phenyl)-2-methoxypyridin-3-yl)methyl)azetidin-3-yl)propan-2-ol]",4.63 nM,111 nM
"COc1nc(-c2cccc(-c3ccnc(-c4ccc5c(c4)CCC[C@H]5NC[C@@H]4CCC(=O)N4)c3Cl)c2Cl)ccc1CNC[C@@H]1CCC(=O)N1 [Compound 185, (S)-5-((((6-(2-chloro-3-(3-chloro-2-((R)-5-((((S)-5-oxopyrrolidin-2-yl)methyl)amino)-5,6,7,8-tetrahydronaphthalen-2-yl)pyridine-4-yl)phenyl)-2-methoxypyridin-3-yl)methyl)amino)methyl)pyridine1335ne-2-one]",10.1 nM,19.3 nM
"COc1cc(-c2nccc(-c3cccc(-c4ccc5c(CNCCO)cn(C)c5n4)c3Cl)c2Cl)ccc1CNC1CCN(C(C)=O)CC1 [Example 559, 1-(4-((4-(3-Chloro-4-(2-chloro-3-(3-(((2-hydroxyethyl)amino)methyl)-1-methyl-1H-pyrrolo[2,3-b]pyridin-6-yl)phenyl)pyridin-2-yl)-2-methoxybenzyl)amino)piperidin-1-yl)ethan-1-one]",1.61 nM,73.2 nM
